Laboratory results reported in patent publication US20050145571A1, “Extraction and recovery of ions from a solution” (priority 2001, published 2005).

Conditions: at 23° C

For `O=S(=O)([O-])C(F)(F)C(F)(F)C(F)(F)C(F)(F)C(F)(F)C(F)(F)C(F)(F)C(F)(F)F.[K+]` [KPFS-8, potassium PFS-8], the solubility was no more than 1000 µg/mL.
